Experimental findings from paper PMC9026967, “Discovery of a Novel Inhibitor Structure of Mycobacterium tuberculosis Isocitrate Lyase” (Molecules, 2022) are described below.

Each structure is given as a SMILES string. Read-outs that look alike come from different tables or passages of the source.

The target of experiment [1] is T1, M. tuberculosis isocitrate lyase (MtICL) (Mycobacterium tuberculosis, UniProt P9WKK7).
T1 construct: gene icl
T1 sequence (P9WKK7 1-428): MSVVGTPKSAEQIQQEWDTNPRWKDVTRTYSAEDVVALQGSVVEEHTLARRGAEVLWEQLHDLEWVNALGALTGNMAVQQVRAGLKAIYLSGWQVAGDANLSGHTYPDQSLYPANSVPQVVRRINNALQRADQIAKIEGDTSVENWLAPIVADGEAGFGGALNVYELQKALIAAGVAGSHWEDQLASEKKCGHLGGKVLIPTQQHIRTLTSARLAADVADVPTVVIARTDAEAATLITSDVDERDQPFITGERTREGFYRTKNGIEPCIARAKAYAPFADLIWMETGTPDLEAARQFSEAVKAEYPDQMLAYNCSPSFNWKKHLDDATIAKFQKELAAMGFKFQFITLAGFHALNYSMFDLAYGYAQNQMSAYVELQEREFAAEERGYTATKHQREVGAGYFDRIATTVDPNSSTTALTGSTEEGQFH
Put plainly: biochemical.

Experiment [2] concerns the target T1, M. tuberculosis isocitrate lyase (MtICL). Put plainly: biochemical. The source holds these as a separate data set.

Take `O=C(O)C(=O)CBr` [3-BP, 3-bromopyruvic acid]: the IC50 in experiment [1] was 63.6 ± 2.8 µM. On to `C=C(CC(=O)O)C(=O)O` [IA, itaconic acid], for which it took 38.6 ± 0.8 µM to reach half-maximal inhibition in experiment [1] (IC50). `O=c1ccc2ccc(O)c(O)c2o1` [MOL005118, Daphnetin] gave a concentration for half-maximal inhibition (IC50) in experiment [2] of 24.4 µM.
